In the test the target is T1, Gag-Pol polyprotein [1148-1435] (Human immunodeficiency virus 1, UniProt P04585).
T1 construct: 1148-1435
Put plainly: HIV Integrase Strand Transfer Scintillation Proximity Assay (SPA). The note with it: pH 7.2; 37 °C. The protocol: Purified recombinant integrase was first combined in a complex with biotinylated donor DNA- streptavidin-coated SPA beads. The complex was preincubated with the test compound, and strand transfer was initiated with a radiolabeled target DNA substrate. After incubation, the incorporated radioactivity was read in a Wallac MicroBeta scintillation plate reader using a counting protocol that corrected for optical cross talk between wells.
As usually defined, the IC50 is the concentration needed to halve the response being measured. `O=S1(=O)CCCCN1c1nc(-c2noc(Cc3ccc(F)cc3)n2)c(O)c2ncccc12` [2-(7-{5-[(4-fluorophenyl)methyl]-1,2,4-oxadiazol-3-yl}-8-hydroxy-1,6-naphthyridin-5-yl)-1,2-thiazinane-1,1-dione] came in with a half-maximal inhibitory concentration (IC50) of more than 100 µM.
With `O=C(NCc1ccc(F)cc1)c1nc(N2CCCCS2(=O)=O)c2cccnc2c1O` [5-(1,1-dioxo-1,2-thiazinan-2-yl)-N-[(4-fluorophenyl)methyl]-8-hydroxy-1,6-naphthyridine-7-carboxamide] the figure was 0.013 µM.
With `Oc1c(-c2noc(-c3ccccc3)n2)ncc2cccnc12` [7-(5-phenyl-1,2,4-oxadiazol-3-yl)-1,6-naphthyridin-8-ol] the figure was more than 100 µM; with `Cn1nc(Cc2ccc(F)cc2)nc1-c1ncc2cccnc2c1O` [7-{3-[(4-fluorophenyl)methyl]-1-methyl-1H-1,2,4-triazol-5-yl}-1,6-naphthyridin-8-ol], more than 500 µM.

The values above are taken from BindingDB's records for doi:10.1016/j.bmcl.2009.01.090 (Gsk, 2009).
